Test results from patent US20210145804A1, “COMPOSITIONS AND METHODS FOR TREATING DISORDERS AMELIORATED BY MUSCARINIC RECEPTOR ACTIVATION” (Karuna Therapeutics, Inc., priority 2019, published 2021).
Marks after values point to notes of the source that are not given here.

Tests used:
[1] = tested on: normal healthy volunteers; set-up: species or system human; conditions: in vivo
Experimental: A Phase I, double-blind, randomized multiple-dose pilot study was conducted with xanomeline administered alone compared to xanomeline administered with trospium chloride in normal healthy volunteers. […]

[2] = tested on: Alzheimer's disease; conditions: 26-week study of Alzheimer's disease; cited from earlier work
[3] = KAR-001 Phase I study: xanomeline and trospium plasma pharmacokinetics; assay type: in vivo, human
[4] = Mutagenic potential of xanomeline synthesis intermediate

For `CCCCCCOc1nsnc1C1=CCCN(C)C1` [Xanomeline + placebo, xanomeline], the “AE leading to discontinuation (D/C)” value [1] was 2 (6.1) n (%), the “AE leading to discontinuation (D/C): # events” value [1] was 2 and the “Any SAE” value [1] was 0 (0.0) n (%). The “Any TEAE: # events” value [1] was 108, the “Any cholinergic TEAEs, number of individual occurrences” value [1] was 64 # and the “Any clinically significant TEAE” value [1] was 5 (15.2) n (%). For the same compound, the “Any clinically significant TEAE: # events” value [1] was 5, the “Any study drug-related TEAE” value [1] was 23 (69.7) n (%) and the “Any study drug-related TEAE: # events” value [1] was 92. The “Cholinergic adverse events, Any TEAEs: # of events” value [1] was 64, the “Cholinergic adverse events, Any TEAEs: subjects” value [1] was 21 (63.6%) n [%] and the “Cholinergic adverse events, Diarrhea: # of events” value [1] was 8. For the same compound, the “Cholinergic adverse events, Diarrhea: subjects” value [1] was 7 (21.2%) n [%], the “Cholinergic adverse events, Nausea: # of events” value [1] was 11 and the “Cholinergic adverse events, Nausea: subjects” value [1] was 8 (24.2%) n [%]. The “Cholinergic adverse events, Salivation: # of events” value [1] was 16, the “Cholinergic adverse events, Salivation: subjects” value [1] was 12 (36.4%) n [%] and the “Cholinergic adverse events, Sweating: # of events” value [1] was 24. The “Cholinergic adverse events, Sweating: subjects” value [1] was 16 (48.5%) n [%], the “Cholinergic adverse events, Vomiting: # of events” value [1] was 5 and the “Cholinergic adverse events, Vomiting: subjects” value [1] was 5 (15.2%) n [%]. For the same compound, the “Diarrhea, incidence” value [1] was 7 (20.6) n (%), the “Diarrhea, number of individual occurrences” value [1] was 8 # and the “Gastrointestinal disorders (cholinergic TEAE), incidence” value [1] was 18 (52.9) n (%). The “Gastrointestinal disorders (cholinergic TEAE), number of individual occurrences” value [1] was 40 #, the “Hyperhidrosis, incidence” value [1] was 16 (47.1) n (%) and the “Hyperhidrosis, number of individual occurrences” value [1] was 24 #. For the same compound, the “Incidence rate of sweating (hyperhidrosis)” value [1] was 48.5%, the “Max Severity of TEAE: Mild” value [1] was 22 (66.7) N/A n (%) and the “Max Severity of TEAE: Moderate” value [1] was 5 (15.2) N/A n (%). For the same compound, the “Max Severity of TEAE: Severe” value [1] was 0 (0.0) n (%), the “Max severity of study drug-related TEAE: Mild” value [1] was 19 (57/6) N/A n (%) and the “Max severity of study drug-related TEAE: Moderate” value [1] was 4 (12.1) N/A n (%). For the same compound, the “Max severity of study drug-related TEAE: Severe” value [1] was 0 (0.0) N/A n (%), the “Nausea, incidence” value [1] was 8 (23.5) n (%) and the “Nausea, number of individual occurrences” value [1] was 11 #. The “Salivary hypersecretion, incidence” value [1] was 12 (35.3) n (%), the “Salivary hypersecretion, number of individual occurrences” value [1] was 16 # and the “Skin and subcutaneous tissue disorders (cholinergic TEAE), incidence” value [1] was 16 (47.1) n (%). The “Skin and subcutaneous tissue disorders (cholinergic TEAE), number of individual occurrences” value [1] was 24 #, the “Study drug related AE leading to D/C” value [1] was 1 (3.0) n (%) and the “Study drug related AE leading to D/C: # events” value [1] was 1. The “Subjects reporting at least one cholinergic adverse event” value [1] was 63%, the “Subjects who experienced syncope” value [1] was “Two” and the “Subjects with any TEAE” value [1] was 27 (81.8) n (%). The “Subjects with any cholinergic TEAEs, incidence” value [1] was 21 (61.8) n (%), the “Vomiting, incidence” value [1] was 5 (14.7) n (%) and the “Vomiting, number of individual occurrences” value [1] was 5 #. For the same compound, the Dropout rate [2] was 56%.
With `O=C(O[C@H]1C[C@H]2CC[C@@H](C1)[N+]21CCCC1)C(O)(c1ccccc1)c1ccccc1` [trospium alone, trospium chloride] the “Trospium Tmax” value ([3]; KAR-001 Day 1, 20 mg trospium BID lead-in, median) was 3.0 h, the Tmax ([3]; human, in vivo, 20 mg, KAR-001 Day 1, read-out: Trospium median Tmax) was 3 h and the Cmax ([3]; human, in vivo, KAR-001 Day 1, 20 mg trospium BID lead-in, geometric mean) was 0.722 ng/mL. The AUC(0-inf) ([3]; human, in vivo, KAR-001 Day 1, 20 mg trospium BID lead-in, geometric mean, read-out: Trospium AUC0-inf) was 7.79 ng·h/mL and the AUC ([3]; human, in vivo, KAR-001 Day 1, 20 mg trospium BID lead-in, geometric mean, read-out: Trospium AUC0-tau) was 5.03 ng·h/mL.
For `CCCCCCOc1nsnc1-c1ccc[n+](C)c1` [Compound V], the Mutagenic potential [4] was “negative”.
